Literature values, collected in patent US4756910A, “Adriamycin-entrapping liposome preparation” (priority 1985, dated 1988).

Structure (SMILES): COc1cccc2c1C(=O)c1c(O)c3c(c(O)c1C2=O)C[C@@](O)(C(=O)CO)C[C@@H]3O[C@H]1C[C@H](N)[C@H](O)[C@H](C)O1 [Free adriamycin, Adriamycin]
- Cardiac toxicity (in words) (background statement): accumulative cardiac toxicity
- Disappearance from the blood (in words) (in vivo, iv): rapidly disappears from the blood after intravenous administration
